Measurements: US8916681B2, “Compound, use and method” (Medical Research Council, priority 2007, dated 2014)
Where “and” joins values, the source holds several entries; their conditions need not be identical. Equal entries are not always repeated. Where two headings read alike, the source gives them in different places. Non-standard residues stand in square brackets, D forms with d. Residues, ends and D or L forms follow the SMILES beside them.

Assays:
[1] = test system: HUVECs (Human Umbilical Vein Endothelial Cells); assay: Cell migration (wound healing) assay in HUVECs; type: cell-based
Experimental: (§1) Human Umbilical Vein Endothelial Cells (HUVECs) isolated from neonatal umbilical cord were used as they endogenously express gpr-54, which is though to be involved in cell migration in the placenta. Chinese hamster ovary (CHO) cells which stably express the human gpr-54 receptor were used as a model cell line for wound healing assays. […] Complete media was added along with 1 nM Kisspeptin-10 for HUVECs and 100 nM Kisspeptin-10 for CHO cells, the optimal concentrations to inhibit cell migration (wound healing) in each cell type, in the presence and absence of antagonist 233, 234, 273 and 276 for HUVECs and 234 for CHOs. […] Cells were photographed on the axiovert 2000 at 20× magnification in phase contrast (Hori et al., 2001. Metastin suppresses the motility and growth of CHO cells transfected with its receptor. Biochem Biophys Res Commun 286, 958-963; Stafford et al., 2002, Identification and characterization of mouse metastasis-suppressor KiSS1 and its G-protein-coupled receptor. Cancer Res 62, 5399-5404).

[2] = Fetal weight after kisspeptin treatment (FIG. 6); type: in vivo
[3] = test system: CHO cells stably expressing human gpr-54; assay: Cell migration (wound healing) assay in CHO cells; type: cell-based, Chinese hamster
Experimental: as §1

[4] = molecular target: GPR54 (Homo sapiens, UniProt Q969F8); assay: Whole cell receptor binding assay, competition with 125I-labelled kisspeptin-10; design: expressed in transfected cells; host or cells: CHO, stably transfected; conditions: competition with I125-labelled kisspeptin-10
Chain of GPR54 (Q969F8 whole entry): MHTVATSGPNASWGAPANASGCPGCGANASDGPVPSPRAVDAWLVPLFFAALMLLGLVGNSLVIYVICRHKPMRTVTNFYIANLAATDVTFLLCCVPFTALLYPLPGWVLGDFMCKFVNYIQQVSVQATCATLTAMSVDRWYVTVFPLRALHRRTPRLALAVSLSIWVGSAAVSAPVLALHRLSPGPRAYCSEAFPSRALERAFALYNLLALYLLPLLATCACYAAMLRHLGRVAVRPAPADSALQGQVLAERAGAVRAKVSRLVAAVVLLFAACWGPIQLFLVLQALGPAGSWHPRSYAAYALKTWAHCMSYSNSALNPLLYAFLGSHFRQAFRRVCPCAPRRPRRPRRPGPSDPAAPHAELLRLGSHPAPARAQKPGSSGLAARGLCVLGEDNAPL
Experimental: Whole Cell Receptor Binding Assay—Kisspeptin-10 and analogues were prepared at 1:1000 dilutions in HEPES modified Dulbecco's modified Eagle's medium (DMEM) supplemented with ^125I-labelled Kisspeptin to produce 100,000 counts per minute (cpm). Cell monolayers were placed on ice and exposed to 0.5 mls peptide (10 pM-1 uM); the cells were then incubated at 4° C. for 4 hr. After 4 hrs, cells were washed twice with ice cold Dulbecco's phosphate buffered saline (DPBS; with Calcium and Magnesium) and then 0.5 mls 0.1M Sodium Hydroxide (NaOH) were added to cells for 20 minutes, shaking to lyse cells. Lysates were transferred to plastic tubes and bound radioactivity counted on the gamma counter for 60 seconds.

[5] = test system: GnRH release; assay: GnRH release in the stalk-median eminence, microdialysis; type: in vivo, rhesus monkey; conditions: pubertal female rhesus monkeys; 10 nM infused over 30 min through microdialysis probe
Experimental: Four female rhesus monkeys, born and raised in the Wisconsin National Primate Research Center, were used in this study. They were housed in pairs (cages 172×86×86 cm) in rooms with 12 h of light 12 h of darkness and controlled temperature (22° C.). The animals were fed a standard diet of Harlan 20% Protein Primate Diet twice each day, supplemented with fresh fruit several times per week. Water was available ad libitum. The protocol for this study was reviewed and approved by the Animal Care and Use Committee, University of Wisconsin, and all experiments were conducted under the guidelines established by the NIH and USDA.
The effects of peptide 234 on GnRH release were examined using the microdialysis method. This method allows collection of dialysate samples for GnRH measurement while peptide 234 was infused through the semi-permeable membrane, as described previously (25)′(24). Peptide 234 dissolved in CNS perfusion fluid was infused in the stalk median eminence region through the microdialysis probe for 30 min while dialysates were continuously collected. […]
On the day of experiment the monkey was placed in the stereotaxic apparatus under ketamine (15 mg/kg b.w.) and medetomidine (0.03-0.05 mg/kg b.w.) anesthesia. […] The x, y, and z coordinates for the S-ME were calculated using ventriculographs and the final radiographs taken during cranial pedestal implantation surgery. […]

[6] = molecular target: LH receptors (Homo sapiens, UniProt P22888); assay: Binding to LH receptors (data not shown)
Chain of LH receptors (P22888 27-699): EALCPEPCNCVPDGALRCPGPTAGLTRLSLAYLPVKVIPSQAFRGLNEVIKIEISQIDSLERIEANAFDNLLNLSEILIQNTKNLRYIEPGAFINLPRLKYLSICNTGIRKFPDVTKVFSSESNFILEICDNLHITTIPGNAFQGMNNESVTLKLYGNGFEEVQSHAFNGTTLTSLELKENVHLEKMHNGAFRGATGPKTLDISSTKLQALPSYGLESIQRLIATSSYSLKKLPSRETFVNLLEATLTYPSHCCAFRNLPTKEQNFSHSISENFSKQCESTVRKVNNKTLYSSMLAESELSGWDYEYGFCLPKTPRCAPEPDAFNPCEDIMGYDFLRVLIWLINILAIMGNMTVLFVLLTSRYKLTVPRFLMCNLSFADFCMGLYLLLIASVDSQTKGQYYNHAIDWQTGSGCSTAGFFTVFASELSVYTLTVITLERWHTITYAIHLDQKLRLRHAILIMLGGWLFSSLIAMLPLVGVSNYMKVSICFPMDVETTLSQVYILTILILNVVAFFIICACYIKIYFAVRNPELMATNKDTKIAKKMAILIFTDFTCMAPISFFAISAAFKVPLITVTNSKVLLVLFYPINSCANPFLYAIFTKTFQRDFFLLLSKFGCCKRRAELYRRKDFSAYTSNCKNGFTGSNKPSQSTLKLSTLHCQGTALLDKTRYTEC

| Compound | inhibition of migration in to the wound ([1]; 1 nM) [%] | fetal weight [2] | inhibition of cell migration ([3]; 100 nM) [%] | Kd ([4]; binding affinity) [nM] | inhibition of migration by 1 nM Kisspeptin in the presence of peptide ([1]; 22 hrs) [%] | GnRH pulses and mean GnRH levels [5] | effect on inhibition of cell migration by 100 nM Kisspeptin ([3]; 22 hrs) | binding to LH receptors [6] | Kd ([4]; read-out: binding affinity) |
| --- | --- | --- | --- | --- | --- | --- | --- | --- | --- |
| CC(C)C[C@H](NC(=O)CNC(=O)[C@H](Cc1ccccc1)NC(=O)[C@H](CO)NC(=O)[C@H](CC(N)=O)NC(=O)[C@H](Cc1c[nH]c2ccccc12)NC(=O)[C@H](CC(N)=O)NC(=O)[C@@H](N)Cc1ccc(O)cc1)C(=O)N[C@@H](CCCNC(=N)N)C(=O)N[C@@H](Cc1ccccc1)C(N)=O [Kiss, reference compound] | 50 | decreased | 50 | 2 | – | – | – | – | – |
| CC(=O)N[C@H](C)C(=O)N[C@@H](CC(N)=O)C(=O)N[C@@H](Cc1c[nH]c2ccccc12)C(=O)N[C@@H](CC(N)=O)C(=O)NCC(=O)N[C@@H](Cc1ccccc1)C(=O)NCC(=O)N[C@H](Cc1c[nH]c2ccccc12)C(=O)N[C@@H](CCCNC(=N)N)C(=O)N[C@@H](Cc1ccccc1)C(N)=O [Peptide 234] (Ac-[dA]NWNGFG[dW]RF-NH2) | – | – | – | – | 10 | suppressed | completely abolishes | did not bind | 2 nM and 2.7 nM |
